This note sets out measurements from PMC3984052 (Bioorganic & medicinal chemistry, 2014).

The subject of this test is PrP^C in N2a-cl3 neuroblastoma cells that overexpress PrP^C. It is filed as cell-based, mouse. Conditions: values not given.
Turning to `COc1cc(OC)cc(C(=O)Nc2ccc(I)cn2)c1` [IND85671], the “Potency (EC50 by ELISA) in N2a-cl3 cells, in words” value (from here on “Potency (EC50 by ELISA)”) was “potent”.
For `NC(=O)c1ccccc1NC(=O)c1cccnc1N1CCCCC1` [IND87406], the “Potency (EC50 by ELISA)” value is “potent”.
For `CCOC(=O)c1[nH]c2c(c1C)C(=O)CC(c1ccco1)C2` (stereo not drawn) [IND87564], the “Potency (EC50 by ELISA)” value is reported as “potent”.
